Measured values as given in the supplement of paper PMC11061612.

Key:
769-P (Kidney Carcinoma) = experiment: combination Emax (second highest fraction inhibited in the dose matrix, 72 h); higher = more inhibition; extreme values may be limits of the assay
Method in brief: (§1)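 Cell lines in DMEM/F12 or RPMI with 10% FBS were plated in 1536-well plates, held 24 hours at 37°C, 5% CO2, then given two-drug dose matrices for 72 hours (DMSO typically 0.2%). Viability was read by CellTiter-Glo 2.0 luminescence and scaled as inhibition from 0 (vehicle wells) to 1 (blank wells). Combination Emax is the second-highest inhibition in the matrix; Bliss excess is observed combination effect minus expected EA + EB − EA·EB, EA and EB being single-agent effects.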

MKN1 (Gastric Carcinoma) [1] = experiment: as above
Method in brief: as §1

[2] = test system: CESS (Acute Myeloid Leukemia); experiment: as above
Method in brief: as §1

[3] = test system: A2780 (Ovarian Carcinoma); experiment: as above
Method in brief: as §1

A101D (Melanoma) = experiment: as above
Method in brief: as §1

[4] = test system: JVM-2 (B-Cell Non-Hodgkin's Lymphoma); experiment: as above
Method in brief: as §1

[5] = test system: MHH-ES-1 (Ewing's Sarcoma); experiment: as above
Method in brief: as §1

[6] = test system: DMS-53 (Small Cell Lung Carcinoma); experiment: as above
Method in brief: as §1

[7] = test system: CAL-27 (Oral Cavity Carcinoma); experiment: as above
Method in brief: as §1

[8] = test system: NCI-H2087 (Lung Adenocarcinoma); experiment: as above
Method in brief: as §1

[9] = test system: KYSE-220 (Esophageal Squamous Cell Carcinoma); experiment: as above
Method in brief: as §1

[10] = test system: NCI-H841 (Small Cell Lung Carcinoma); experiment: as above
Method in brief: as §1

MKN1 (Gastric Carcinoma) [11] = experiment: Bliss excess, mean over the matrix (fraction); higher = more synergy
Method in brief: as §1

[12] = test system: NCI-H841 (Small Cell Lung Carcinoma); experiment: as above
Method in brief: as §1
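Wherever Bliss excess, mean over the matrix is given: after 72 h of two-drug dosing.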

SMILES | combination Emax (769-P (Kidney Carcinoma)) | combination Emax (MKN1 (Gastric Carcinoma) [1]) | combination Emax [2] | combination Emax [3] | combination Emax (A101D (Melanoma)) | combination Emax [4] | combination Emax [5] | combination Emax [6] | combination Emax [7] | combination Emax [8] | combination Emax [9] | combination Emax [10] | Bliss excess (MKN1 (Gastric Carcinoma) [11]) | Bliss excess [12]
CN(C)CCCOc1ccc(-c2ccc3ncc4c(c3c2)n(C2CCOCC2)c(=O)n4C)cn1 [AZD0156] + O=C(c1cc(Cc2n[nH]c(=O)c3ccccc23)ccc1F)N1CCN(C(=O)C2CC2)CC1 [Olaparib] (first compound max 3 µM, partner max 3 µM) | 0.16 | 0.307 | 0.376 | 0.595 | 0.411 | 0.533 | 0.801 | 0.255 | 0.299 | 0.12 | 0.54 | 0.208 | 0.0242 | -0.0483
C=CCn1c(=O)c2cnc(Nc3ccc(N4CCN(C)CC4)cc3)nc2n1-c1cccc(C(C)(C)O)n1 [AZD1775] + C1CN(CCC1(C(=O)N[C@@H](CCO)C2=CC=C(C=C2)Cl)N)C3=NC=NC4=C3C=CN4 [Capivasertib] (first compound max 3 µM, partner max 3 µM) | 0.665 | 0.821 | 0.874 | 0.873 | 0.757 | 0.93 | 0.833 | 0.619 | 0.715 | 0.501 | 0.85 | 0.676 | -0.0236 | -0.0788
COc1nnc2ccc(N3CCC(c4ccc(OCCN5CCN(C)C(=O)[C@H]5C)cc4)CC3)nn12 [AZD5153] + C=CCn1c(=O)c2cnc(Nc3ccc(N4CCN(C)CC4)cc3)nc2n1-c1cccc(C(C)(C)O)n1 [AZD1775] (first compound max 1 µM, partner max 1 µM) | 0.956 | 0.926 | 0.941 | 0.844 | 0.737 | 0.897 | 0.764 | 0.51 | 0.63 | 0.627 | 0.804 | 0.503 | 0.0363 | -0.0299
COc1nnc2ccc(N3CCC(c4ccc(OCCN5CCN(C)C(=O)[C@H]5C)cc4)CC3)nn12 [AZD5153] + CC1(C)CCC(CN2CCN(c3ccc(C(=O)NS(=O)(=O)c4ccc(NCC5CCOCC5)c([N+](=O)[O-])c4)c(Oc4cnc5[nH]ccc5c4)c3)CC2)=C(c2ccc(Cl)cc2)C1 [Venetoclax] (first compound max 1 µM, 7x7, partner max 1 µM) | 0.701 | 0.57 | 0.638 | 0.736 | 0.67 | 0.739 | 0.682 | 0.887 | 0.504 | 0.389 | 0.617 | 0.317 | -0.0062 | -0.0317
COc1nnc2ccc(N3CCC(c4ccc(OCCN5CCN(C)C(=O)[C@H]5C)cc4)CC3)nn12 [AZD5153] + CCN(CCO)CCCOc1ccc2c(Nc3cc(CC(=O)Nc4cccc(F)c4)[nH]n3)ncnc2c1 [AZD2811] (first compound max 1 µM, 7x7, partner max 1 µM) | 0.711 | 0.807 | 0.648 | 0.783 | 0.693 | 0.729 | 0.762 | 0.593 | 0.646 | 0.351 | 0.677 | 0.428 | -0.0033 | 0.0001
COc1nnc2ccc(N3CCC(c4ccc(OCCN5CCN(C)C(=O)[C@H]5C)cc4)CC3)nn12 [AZD5153] + C[C@@H]1COCCN1C2=NC(=NC(=C2)C3(CC3)[S@](=N)(=O)C)C4=C5C=CNC5=NC=C4 [AZD6738] (first compound max 1 µM, 7x7, partner max 10 µM) | 0.977 | 0.936 | 0.905 | 0.848 | 0.805 | 0.825 | 0.812 | 0.58 | 0.659 | 0.728 | 0.863 | 0.73 | 0.0483 | 0.0202
COc1nnc2ccc(N3CCC(c4ccc(OCCN5CCN(C)C(=O)[C@H]5C)cc4)CC3)nn12 [AZD5153] + Cc1c2c(nn1C)CSCc1cc(n(C)n1)CSc1cc(c3ccccc3c1)OCCCc1c(C(=O)O)n(C)c3c-2c(Cl)ccc13 [AZD5991] (first compound max 1 µM, 7x7, partner max 1 µM) | 0.727 | 0.866 | 0.76 | 0.977 | 0.924 | 0.711 | 0.911 | 0.612 | 1 | 0.453 | 0.842 | 0.565 | 0.0194 | -0.0119
COc1nnc2ccc(N3CCC(c4ccc(OCCN5CCN(C)C(=O)[C@H]5C)cc4)CC3)nn12 [AZD5153] + Cn1cnc2c(F)c(Nc3ccc(Br)cc3Cl)c(C(=O)NOCCO)cc21 [Selumetinib] (first compound max 1 µM, 7x7, partner max 10 µM) | 0.659 | 0.619 | 0.606 | 0.823 | 0.872 | 0.702 | 0.707 | 0.426 | 0.795 | 0.631 | 0.808 | 0.328 | -0.0081 | -0.0121
NC1(C(=O)N[C@@H](CCO)c2ccc(Cl)cc2)CCN(c2ncnc3[nH]ccc23)CC1 [Capivasertib] + CC(=O)c1c(C)c2cnc(Nc3ccc(N4CCNCC4)cn3)nc2n(C2CCCC2)c1=O [Palbociclib] (first compound max 10 µM, 7x7, partner max 10 µM) | 0.773 | 0.463 | 0.708 | 0.77 | 0.581 | 0.823 | 0.5 | 0.25 | 0.69 | 0.244 | 0.712 | 0.293 | 0.0106 | -0.0365
NC1(C(=O)N[C@@H](CCO)c2ccc(Cl)cc2)CCN(c2ncnc3[nH]ccc23)CC1 [Capivasertib] + CC(C)n1c(=O)n(C)c2cnc3cc(F)c(-c4ccc(OCCCN5CCCCC5)nc4)cc3c21 [AZD1390] (first compound max 10 µM, 7x7, partner max 0.3 µM) | 0.34 | 0.39 | 0.456 | 0.643 | 0.46 | 0.707 | 0.354 | 0.187 | 0.321 | 0.206 | 0.49 | 0.273 | -0.0379 | -0.0909
NC1(C(=O)N[C@@H](CCO)c2ccc(Cl)cc2)CCN(c2ncnc3[nH]ccc23)CC1 [Capivasertib] + CCN(CCO)CCCOc1ccc2c(Nc3cc(CC(=O)Nc4cccc(F)c4)[nH]n3)ncnc2c1 [AZD2811] (first compound max 10 µM, 7x7, partner max 1 µM) | 0.422 | 0.531 | 0.654 | 0.812 | 0.552 | 0.755 | 0.665 | 0.238 | 0.646 | 0.256 | 0.623 | 0.426 | -0.0067 | -0.0415
NC1(C(=O)N[C@@H](CCO)c2ccc(Cl)cc2)CCN(c2ncnc3[nH]ccc23)CC1 [Capivasertib] + COc1nnc2ccc(N3CCC(c4ccc(OCCN5CCN(C)C(=O)[C@H]5C)cc4)CC3)nn12 [AZD5153] (first compound max 10 µM, 7x7, partner max 1 µM) | 0.729 | 0.782 | 0.747 | 0.873 | 0.66 | 0.79 | 0.717 | 0.164 | 0.833 | 0.301 | 0.838 | 0.405 | 0.0481 | -0.0002
NC1(C(=O)N[C@@H](CCO)c2ccc(Cl)cc2)CCN(c2ncnc3[nH]ccc23)CC1 [Capivasertib] + C[C@@H]1COCCN1C2=NC(=NC(=C2)C3(CC3)[S@](=N)(=O)C)C4=C5C=CNC5=NC=C4 [AZD6738] (first compound max 10 µM, 7x7, partner max 10 µM) | 0.88 | 0.807 | 0.91 | 0.86 | 0.803 | 0.864 | 0.645 | 0.34 | 0.58 | 0.486 | 0.869 | 0.457 | -0.0639 | -0.0622
NC1(C(=O)N[C@@H](CCO)c2ccc(Cl)cc2)CCN(c2ncnc3[nH]ccc23)CC1 [Capivasertib] + Cn1cnc2c(F)c(Nc3ccc(Br)cc3Cl)c(C(=O)NOCCO)cc21 [Selumetinib] (first compound max 10 µM, 7x7, partner max 10 µM) | 0.426 | 0.552 | 0.672 | 0.828 | 0.785 | 0.737 | 0.379 | 0.301 | 0.815 | 0.539 | 0.763 | 0.308 | 0.081 | 0.0115
CS(=O)(=O)CCNCc1ccc(-c2ccc3ncnc(Nc4ccc(OCc5cccc(F)c5)c(Cl)c4)c3c2)o1 [Lapatinib] + C[C@@H](Oc1cc(-c2cnn(C3CCNCC3)c2)cnc1N)c1c(Cl)ccc(F)c1Cl [Crizotinib] (first compound max 10 µM, 7x7, partner max 10 µM) | 0.966 | 0.922 | 0.896 | 0.98 | 0.971 | 0.918 | 0.912 | 0.25 | 0.958 | 0.395 | 0.994 | 0.356 | 0.0038 | -0.0378
CS(=O)(=O)CCNCc1ccc(-c2ccc3ncnc(Nc4ccc(OCc5cccc(F)c5)c(Cl)c4)c3c2)o1 [Lapatinib] + NC1(c2ccc(-c3nc4ccn5c(=O)[nH]nc5c4cc3-c3ccccc3)cc2)CCC1 [MK-2206] (first compound max 10 µM, 7x7, partner max 10 µM) | 0.978 | 0.925 |  | 0.909 | 0.967 |  | 0.905 | 0.544 |  | 0.293 | 0.981 | 0.17 | 0.0099 | -0.0246
CC(=O)c1c(C)c2cnc(Nc3ccc(N4CCNCC4)cn3)nc2n(C2CCCC2)c1=O [Palbociclib] + CC1(C)CCC(CN2CCN(c3ccc(C(=O)NS(=O)(=O)c4ccc(NCC5CCOCC5)c([N+](=O)[O-])c4)c(Oc4cnc5[nH]ccc5c4)c3)CC2)=C(c2ccc(Cl)cc2)C1 [Venetoclax] (first compound max 10 µM, 7x7, partner max 1 µM) | 0.814 | 0.249 | 0.651 | 0.721 | 0.424 | 0.762 | 0.401 | 0.327 | 0.0994 | 0.0514 | 0.189 | 0.0903 | -0.0394 | -0.0463
